Measurements taken from the NIST ThermoML archive (doi:10.1016/j.jct.2008.02.020).

Conditions: Liquid, Buoyancy - hydrostatic balance with magnetic suspension - one sinker

Brc1ccccc1 [bromobenzene]
Conditions | mass density [kg/m3]
248.15 K, 99.7 kPa | 1554.49
248.15 K, 1231.4 kPa | 1555.37
248.15 K, 2075.4 kPa | 1556.04
248.15 K, 4196.2 kPa | 1557.7
248.15 K, 5951 kPa | 1559.05
248.15 K, 8068.3 kPa | 1560.67
248.15 K, 10015 kPa | 1562.11
248.15 K, 11952 kPa | 1563.58
248.15 K, 13995 kPa | 1565.09
248.15 K, 15940 kPa | 1566.53
248.15 K, 18145 kPa | 1568.12
248.15 K, 19946 kPa | 1569.42
248.15 K, 21965 kPa | 1570.86
248.15 K, 24136 kPa | 1572.41
248.15 K, 25865 kPa | 1573.62
248.15 K, 27917 kPa | 1575.05
248.15 K, 29850 kPa | 1576.39
273.15 K, 100.51 kPa | 1520.56
273.15 K, 1116.3 kPa | 1521.45
273.15 K, 2128.1 kPa | 1522.34
273.15 K, 4045.8 kPa | 1524.03
273.15 K, 5967.3 kPa | 1525.66
273.15 K, 8142.8 kPa | 1527.52
273.15 K, 10020 kPa | 1529.11
273.15 K, 11896 kPa | 1530.68
273.15 K, 13922 kPa | 1532.35
273.15 K, 16083 kPa | 1534.13
273.15 K, 18195 kPa | 1535.83
273.15 K, 20035 kPa | 1537.31
273.15 K, 21829 kPa | 1538.75
273.15 K, 23856 kPa | 1540.34
273.15 K, 25976 kPa | 1542.02
273.15 K, 28098 kPa | 1543.65
273.15 K, 29947 kPa | 1545.09
293.15 K, 101.93 kPa | 1493.56
293.15 K, 1239.7 kPa | 1494.68
293.15 K, 2010.7 kPa | 1495.41
293.15 K, 4059.7 kPa | 1497.37
293.15 K, 6007.9 kPa | 1499.22
293.15 K, 8079.8 kPa | 1501.16
293.15 K, 10001 kPa | 1502.94
293.15 K, 11960 kPa | 1504.73
293.15 K, 14169 kPa | 1506.73
293.15 K, 15879 kPa | 1508.27
293.15 K, 17960 kPa | 1510.11
293.15 K, 19999 kPa | 1511.9
293.15 K, 21880 kPa | 1513.53
293.15 K, 24122 kPa | 1515.46
293.15 K, 26141 kPa | 1517.17
293.15 K, 28060 kPa | 1518.79
293.15 K, 29993 kPa | 1520.42
313.15 K, 102.54 kPa | 1466.55
313.15 K, 2000.8 kPa | 1468.59
313.15 K, 4011 kPa | 1470.71
313.15 K, 6189.6 kPa | 1473
313.15 K, 7991.6 kPa | 1474.86
313.15 K, 10089 kPa | 1477.01
313.15 K, 12143 kPa | 1479.06
313.15 K, 14015 kPa | 1480.93
313.15 K, 16087 kPa | 1482.94
313.15 K, 18047 kPa | 1484.85
313.15 K, 20004 kPa | 1486.73
313.15 K, 22154 kPa | 1488.76
313.15 K, 23944 kPa | 1490.45
313.15 K, 26100 kPa | 1492.42
313.15 K, 28042 kPa | 1494.21
313.15 K, 29906 kPa | 1495.9
333.15 K, 100.42 kPa | 1439.38
333.15 K, 1115 kPa | 1440.6
333.15 K, 1943.4 kPa | 1441.57
333.15 K, 4094.5 kPa | 1444.1
333.15 K, 6114.2 kPa | 1446.44
333.15 K, 7927.8 kPa | 1448.51
333.15 K, 10022 kPa | 1450.84
333.15 K, 11958 kPa | 1453
333.15 K, 13999 kPa | 1455.24
333.15 K, 16049 kPa | 1457.44
333.15 K, 18156 kPa | 1459.68
333.15 K, 20008 kPa | 1461.63
333.15 K, 22158 kPa | 1463.84
333.15 K, 24130 kPa | 1465.86
333.15 K, 26094 kPa | 1467.85
333.15 K, 28018 kPa | 1469.76
333.15 K, 29890 kPa | 1471.61
353.15 K, 99.8 kPa | 1411.94
353.15 K, 1173.8 kPa | 1413.37
353.15 K, 1944.3 kPa | 1414.39
353.15 K, 3949.8 kPa | 1417.01
353.15 K, 5968.9 kPa | 1419.61
353.15 K, 7990.5 kPa | 1422.16
353.15 K, 9916 kPa | 1424.56
353.15 K, 11987 kPa | 1427.09
353.15 K, 14135 kPa | 1429.67
353.15 K, 15921 kPa | 1431.8
353.15 K, 18146 kPa | 1434.39
353.15 K, 19874 kPa | 1436.37
353.15 K, 22180 kPa | 1438.99
353.15 K, 23964 kPa | 1440.98
353.15 K, 26085 kPa | 1443.32
353.15 K, 28122 kPa | 1445.53
353.15 K, 29956 kPa | 1447.5
373.15 K, 98.54 kPa | 1384.07
373.15 K, 1150.1 kPa | 1385.64
373.15 K, 2174.4 kPa | 1387.16
373.15 K, 3917.7 kPa | 1389.71
373.15 K, 6182.4 kPa | 1392.96
373.15 K, 8042.7 kPa | 1395.57
373.15 K, 10003 kPa | 1398.28
373.15 K, 12008 kPa | 1400.99
373.15 K, 14086 kPa | 1403.76
373.15 K, 15913 kPa | 1406.15
373.15 K, 18066 kPa | 1408.91
373.15 K, 19882 kPa | 1411.21
373.15 K, 22174 kPa | 1414.05
373.15 K, 24053 kPa | 1416.33
373.15 K, 25897 kPa | 1418.54
373.15 K, 27711 kPa | 1420.7
373.15 K, 29531 kPa | 1422.85
393.15 K, 97.33 kPa | 1355.66
393.15 K, 1226 kPa | 1357.56
393.15 K, 2181.2 kPa | 1359.15
393.15 K, 3965.3 kPa | 1362.08
393.15 K, 6075.4 kPa | 1365.47
393.15 K, 8146.9 kPa | 1368.75
393.15 K, 9937.3 kPa | 1371.46
393.15 K, 11970 kPa | 1374.53
393.15 K, 14177 kPa | 1377.78
393.15 K, 15956 kPa | 1380.34
393.15 K, 18164 kPa | 1383.47
393.15 K, 20147 kPa | 1386.23
393.15 K, 22176 kPa | 1389
393.15 K, 23982 kPa | 1391.42
393.15 K, 26170 kPa | 1394.3
393.15 K, 28005 kPa | 1396.7
393.15 K, 29542 kPa | 1398.68
413.15 K, 99.45 kPa | 1326.55
413.15 K, 1202.8 kPa | 1328.65
413.15 K, 2177.1 kPa | 1330.51
413.15 K, 3915.5 kPa | 1333.73
413.15 K, 6185.5 kPa | 1337.83
413.15 K, 8176.1 kPa | 1341.33
413.15 K, 10032 kPa | 1344.48
413.15 K, 12104 kPa | 1348.01
413.15 K, 13992 kPa | 1351.03
413.15 K, 15890 kPa | 1354.12
413.15 K, 18162 kPa | 1357.68
413.15 K, 19933 kPa | 1360.41
413.15 K, 22150 kPa | 1363.74
413.15 K, 24133 kPa | 1366.66
413.15 K, 26039 kPa | 1369.41
413.15 K, 27898 kPa | 1372.06
413.15 K, 29858 kPa | 1374.81
433.15 K, 1243.8 kPa | 1299.09
433.15 K, 1973.3 kPa | 1300.66
433.15 K, 4075.9 kPa | 1305.09
433.15 K, 6197.8 kPa | 1309.43
433.15 K, 7981.5 kPa | 1312.95
433.15 K, 10020 kPa | 1316.91
433.15 K, 12073 kPa | 1320.75
433.15 K, 14034 kPa | 1324.34
433.15 K, 15960 kPa | 1327.77
433.15 K, 17921 kPa | 1331.19
433.15 K, 19992 kPa | 1334.75
433.15 K, 21950 kPa | 1337.95
433.15 K, 24018 kPa | 1341.31
433.15 K, 26143 kPa | 1344.68
433.15 K, 28052 kPa | 1347.64
433.15 K, 29864 kPa | 1350.43
453.15 K, 1135.4 kPa | 1268.14
453.15 K, 1982.5 kPa | 1270.24
453.15 K, 4017.7 kPa | 1275.16
453.15 K, 6189 kPa | 1280.22
453.15 K, 7994.2 kPa | 1284.28
453.15 K, 10139 kPa | 1288.98
453.15 K, 12157 kPa | 1293.2
453.15 K, 13982 kPa | 1296.94
453.15 K, 16134 kPa | 1301.21
453.15 K, 18122 kPa | 1305.05
453.15 K, 19974 kPa | 1308.56
453.15 K, 22141 kPa | 1312.52
453.15 K, 24115 kPa | 1316.05
453.15 K, 26121 kPa | 1319.56
453.15 K, 28034 kPa | 1322.83
453.15 K, 29912 kPa | 1325.98
473.15 K, 1191.2 kPa | 1236.28
473.15 K, 2175.4 kPa | 1239.12
473.15 K, 4131.5 kPa | 1244.58
473.15 K, 5988.1 kPa | 1249.54
473.15 K, 8161.4 kPa | 1255.13
473.15 K, 10165 kPa | 1260.08
473.15 K, 12166 kPa | 1264.85
473.15 K, 14163 kPa | 1269.43
473.15 K, 16125 kPa | 1273.8
473.15 K, 18167 kPa | 1278.2
473.15 K, 20146 kPa | 1282.35
473.15 K, 22123 kPa | 1286.36
473.15 K, 24157 kPa | 1290.39
473.15 K, 26075 kPa | 1294.08
473.15 K, 28020 kPa | 1297.73
473.15 K, 29860 kPa | 1301.12
